Measured values published in patent US7312213B2, “Substituted benzo[e][1,4]oxazino[3,2-g]isoindole compounds” (Les Laboratories Servier, priority 2002, dated 2007).
Structures can show the parent of a compound that is named as a salt.

Experiments:
[1] = test system: HT-29 colon carcinoma; experiment: In vitro cytotoxicity, human solid tumour cell line HT-29; format: cell-based; settings: 96 h, incubation 4 days
Procedure: (§1) L1210 murine leukaemia was used in vitro. The cells are cultured in RPMI 1640 complete culture medium containing 10% foetal calf serum, 2 mM glutamine, 50 units/ml of penicillin, 50 μg/ml of streptomycin and 10 mM Hepes, pH=7.4. The cells are distributed on microplates and are exposed to the cytotoxic compounds for 4 doubling periods, or 48 hours. The number of viable cells is then quantified by a colorimetric assay, the Microculture Tetrazolium Assay (J. Carmichael et al., Cancer Res.; 47, 939-942 (1987)). The results are expressed as the IC50, the concentration of cytotoxic agent that inhibits the proliferation of the treated cells by 50%.
(§2) The compounds of the invention were also tested on human cell lines originating from solid tumours, in accordance with the same test protocol as that described for L1210 murine leukaemia but with incubation periods of 4 days instead of 2 days.

[2] = test system: DU145 prostate carcinoma; experiment: In vitro cytotoxicity, human solid tumour cell line DU145; format: cell-based; settings: DU-145, 96 h, incubation 4 days
Procedure: as §1, §2

[3] = test system: A549 non-small-cell lung carcinoma; experiment: In vitro cytotoxicity, human solid tumour cell line A549; format: cell-based; settings: 96 h, incubation 4 days
Procedure: as §1, §2

[4] = test system: KB-3-1 epidermoid carcinoma; experiment: In vitro cytotoxicity, human solid tumour cell line KB-3-1; format: cell-based; settings: 96 h, incubation 4 days
Procedure: as §1, §2

[5] = test system: L1210 murine leukaemia; experiment: In vitro cytotoxicity, L1210 murine leukaemia (Microculture Tetrazolium Assay); format: cell-based; settings: Mus musculus; L1210, 48 hours exposure (4 doubling periods); read-out: IC50, concentration of cytotoxic agent that inhibits the proliferation of the treated cells by 50%
Procedure: as §1

SMILES	melting point	other results
CN(C)CCn1c(=O)c2c3cc(O)ccc3c3c(oc4ccccc4n3C(=O)OC(C)(C)C)c2c1=O [Example 1, 8-(tert-Butoxycarbonyl)-2-[2-(dimethylamino)ethyl]-5-hydroxy-2,3-dihydrobenzo[a]pyrrolo[3,4-c]phenoxazine-1,3-dione]	190 °C (dec.)	–
CN(C)CCn1c(=O)c2c3cc(O)ccc3c3[nH]c4ccccc4oc3c2c1=O [Example 2, 2-[2-(Dimethylamino)ethyl]-5-hydroxybenzo[a]pyrrolo[3,4-c]phenoxazine-1,3-dione hydrochloride]	–	IC50 [1]: 600 nM; IC50 [2]: 270 nM; IC50 [3]: 160 nM; IC50 [4]: 260 nM; IC50 [5]: 250 nM
CN(C)CCn1c(=O)c2c3cc(OCCO)ccc3c3c(oc4ccccc4n3C(=O)OC(C)(C)C)c2c1=O [Example 3, 8-(tert-Butoxycarbonyl)-2-[2-(dimethylamino)ethyl]-5-(2-hydroxy-ethoxy)-2,3-dihydrobenzo[a]pyrrolo [3,4-c]phenoxazine-1,3-dione]	> 80 °C (dec.)	–
CN(C)CCn1c(=O)c2c3cc(OCCO)ccc3c3[nH]c4ccccc4oc3c2c1=O [Example 6, 2-[2-(Dimethylamino)ethyl]-5-(2-hydroxyethoxy)benzo-[a]pyrrolo[3,4-c]phenoxazine-1,3-dione]	216 °C	–
CN(C)CCn1c(=O)c2c3cc(OCCO)ccc3c3c(oc4ccccc4n3C=O)c2c1=O [Example 7, 8-(Formyl)-2-[2-(dimethylamino)ethyl]-5-(2-hydroxyethoxy)-benzo[a]pyrrolo[3,4-c]phenoxazine-1,3-dione]	202 °C	–
Cn1c(=O)c2c3cc(OCCO)ccc3c3c(oc4cccnc4n3C(=O)Oc3ccccc3)c2c1=O [Example 8, 8-(Phenoxycarbonyl)-5-(2-hydroxyethoxy)-2-methyl-2,3-dihydrobenzo[e]pyrido[2′,3′:5,6][1,4]oxazino[3,2-g]isoindole-1,3-dione]	250 °C	–
